For orientation: EC50 means the midpoint of the concentration-response curve. A high value points to a need for much substance. In general, IC50 refers to the midpoint of a concentration-inhibition curve.

Assay [1] relates to mitochondria isolated from HeLa cells. Put plainly: HeLa cytochrome C release assay. It counts as biochemical. Particulars: at a concentration of 10 μM; release initiated with t-Bid 25 nM. The procedure:
HeLa Cytochrome C Release Assay
Inhibition of the pro-apoptotic protein cytochorome C by a compound of Formula I (and/or a compound of any of the other formulae described herein), was evaluated in mitochondria isolated from HeLa cells. In the assay, 10-20 million HeLa cells were resuspended in assay buffer (70 mM sucrose; 230 mM mannitol; 1 mM EDTA; 5 mM HEPES, pH 7 with KOH) containing protease inhibitor cocktail (Sigma P-8340) and treated with 1.5 μg/million cells digitonin for 5 minutes at 4° C. Cells were pelleted by centrifugation and washed twice with assay buffer containing 0.5% BSA. Cells were resuspended in assay buffer and homogenized with a Dounce homogenizer (60 strokes) on ice. Intact cells were removed by centrifugation (1000×g, 10 min) and the supernatant centrifuged (8,500×g, 10 min) The mitochondrial pellet was resuspended in assay buffer to achieve a protein concentration of 0.333 μg/ml. 15 μl of Test compound (at 5× dilution) was combined with 45 μl mitochondria and incubated for 15 min at RT. Cytochrome C release was initiated with 15 μl t-Bid (final conc=25 nM) and the reaction continued for 30 min at RT. Samples were then centrifuged (12,000×g, 10 min) and 50 μl of the supernatant analyzed for cytochrome C content by ELISA (R & D Systems, #DCTCO).

Assay [2] has as its system SH-SY5Y human neuroblastoma cells. Put plainly: In vitro human SHSY5Y survival assay (neuronal survival assay). It is filed as cell-based. Particulars: n=2. The procedure:
In Vitro Human SHSY5Y Survival Assay
In order to determine if compounds effect cell survival, we tested them in an in vitro assay using the human neuroblastoma cell line SH-SY5Y. SH-SY5Y human neuroblastoma cells treated with retinoic acid for 5 days produce a homogeneous population of neuronal differentiated cells that are strictly dependant on BDNF for their survival. SH-SY5Y cells are plated on 96-well collagen coated plates and incubated for 24 hours. Retinoic acid is then added and incubated on the cells for 5 days. After 5 days, media with retinoic acid is removed and replaced with serum free media+/−compound. Each plate includes basal media (negative) and BDNF (positive) controls. The cells are then fixed with paraformaldehyde (3.7%) and stained with the nuclear marker Hoechst and the neuronal marker beta-Tubulin III. The plate is imaged using the In Cell Analyzer 2000™. Each well is imaged in 9 different spots throughout the well. The images are analyzed with a custom-designed algorithm using the In Cell Developer™ software. Data is averaged per compound concentration and calculated as a background subtracted percent of positive control.

The target in assay [3] is T1, Recombinant GST-Bax protein (Homo sapiens, UniProt Q07812).
T1 construct: purchased Abnova
T1 sequence (Q07812 whole entry): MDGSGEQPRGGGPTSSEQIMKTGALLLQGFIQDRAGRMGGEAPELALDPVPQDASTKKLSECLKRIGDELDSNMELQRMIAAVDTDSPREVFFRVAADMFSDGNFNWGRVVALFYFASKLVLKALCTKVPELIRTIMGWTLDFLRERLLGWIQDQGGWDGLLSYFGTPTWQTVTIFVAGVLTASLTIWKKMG
Put plainly: BAX liposome assay. It is filed as biochemical. How it is done: Inhibition of BAX oligomerization and pore formation was evaluated using a liposome assay preparation. To do so, 30% 1,2-dioleoyl-sn-glycero-3-phosphate and 70% 1,2-dioleoyl-sn-glycero-3-phosphocholine (Avanti Polar Lipids, Alabaster, Ala.) were mixed in chloroform followed by evaporation at 37° C. under nitrogen (Saito et al., 2000). Liposomes were then rehydrated with agitation in buffer containing 50 mM 10 kD-dextran carboxyfluorescein (dextran-CF, Invitrogen, Carlsbad, Calif.), 100 mM KCl, 1 mM EDTA and 20 mM HEPES at pH 7.4. Liposomes were then sized using 5 freeze-thaw cycles, 5 minutes in a sonication bath, followed by 3 passages through a 5 μm syringe filter and 5 passages through a 0.2 μm syringe filter. Free dextran-CF was removed by Sepharose S-300 size exclusion chromatography (GE Healthcare, Piscataway, N.J.). Recombinant GST-Bax protein (Abnova, Taipei, Taiwan) was activated by incubating for 30 minutes in 2% octyglucoside in the presence or absence of compound X in a 96-well plate. Liposomes were then added to the activated GST-Bax (final concentration 10 nM). Carboxyfluorescein release from liposomes was measured by excitation with 497 nm light and the […] monitored for 15 minutes.

With `FC(F)(F)c1ccc2c(c1)N(CCCN1CC3(CNC3)C1)c1ccccc1S2` [Example 4, 10-(3-(2,6-diazaspiro[3.3]heptan-2-yl)propyl)-2-(trifluoromethyl)-10H-phenothiazine], the “inhibition of cytochrome C release” value in assay [1] is reported as 27%.
For the compound `OC(CN1CC2(CNC2)C1)CN1c2ccccc2Sc2ccc(C(F)(F)F)cc21` (racemic) [Example 3, (±)-1-(2,6-diazaspiro[3.3]heptan-2-yl)-3-(2-(trifluoromethyl)-10H-phenothiazin-10-yl)propan-2-ol], the “inhibition of cytochrome C release” value in assay [1] was 93%.
`OC(CN1CC2(COC2)C1)CN1c2ccccc2Sc2ccc(C(F)(F)F)cc21` (racemic) [Example 1, (±)-1-(2-oxa-6-azaspiro[3.3]heptan-6-yl)-3-(2-(trifluoromethyl)-10H-phenothiazin-10-yl)propan-2-ol]: the response in assay [2] was half-maximal at 0.509 µM (EC50). Further, the IC50 in assay [3] is 24.6 µM.

These data come from patent US9187439B2, “Tricyclic compounds useful as neurogenic and neuroprotective agents” (INCEPTION 1, INC., priority 2011, dated 2015).
